In patent publication US11344521B2, “Methods for the treatment of leptomeningeal disease” (priority 2017, dated 2022):

Assay: Solubility in water
Format: physicochemical

NC(=O)C(CCC(=O)[O-])NC(=O)Cc1ccccc1.[Na+] (stereo not shown) [Iso-PG, phenylacetylisoglutaminate sodium]
solubility in water: soluble in water
